Results taken from article PMC6347765, “Streamlined SMFA and mosquito dark-feeding regime significantly improve malaria transmission-blocking assay robustness and sensitivity” (Malaria Journal, 2019).

Key:
[1] = system: P. falciparum NF54 in An. coluzzii; test: Standard membrane feeding assay (SMFA) with AMPs added to gametocytaemic blood mix; oocyst counts in mosquito midguts; format: in vivo, Plasmodium falciparum; settings: AMP at 50 μM final concentration in gametocytaemic blood mix fed to An. coluzzii; vs PBS-treated control; oocysts counted seven days post-infection; P < 0.001; Fig. 4a
Experimental: The An. coluzzii N’gousso strain colonized from field-collected mosquitoes of the An. gambiae M molecular form in 2006 in Yaoundé, Cameroon, and the P. falciparum NF54 strain (MRA-1000, patient E) obtained from the MR4 were used for all the experiments reported in this paper. Mosquitoes were reared and maintained at standard insectary conditions (27 ± 1 °C and 70 ± 5%) humidity on a 12:12 light/dark (L:D) cycle: 11.5 h full light of ~ 300 lx starting at 6 am and 11.5 h darkness starting at 6 p.m., separated by 0.5 h dawn and dusk transitions, respectively. All mosquito infection experiments took place between 2 and 4 p.m.
Day 16/17. Gametocyte feeding A 14/15-day old gametocyte culture is used for mosquito infections. Three hours before gametocyte feed, the fructose-soaked cotton ball is removed from the cups to starve the mosquitoes, and mosquito cups are placed in the dark inside a second container for biosafety reasons. The container is placed in an incubator set at standard insectary conditions described above.
One hour before feeding heat-inactivated human serum (56 °C for 30 min) is defrosted at RT and placed on heat block at 37 °C. […]
The gametocyte culture is hand-swirled and placed on 37 °C heat block. […] The number of exflagellation centres formed in the 4 × 4 grid is determined under the microscope (10× objective). […]

[2] = system: different Plasmodium species; settings: injection into anopheline mosquitoes previously infected with different Plasmodium species; cited from earlier work
Description: (§1) AMPs from various sources with different levels of plasmodicidal activities have been previously discovered. […] Both AMPs were previously shown to induce parasite killing.

P. berghei ookinetes = settings: 50 μM concentration; in vitro produced P. berghei ookinetes; cited from earlier work
Description: as §1

P. falciparum = settings: mixed with gametocytic blood; An. coluzzii; no reference printed in this sentence (preceding sentence ref 34); cited from earlier work
Description: as §1

P. berghei = settings: in both An. coluzzii and Anopheles stephensi; cited from earlier work
Description: as §1

Substance	transmission-blocking activity (oocyst infection intensity) compared to control [1]	effect on parasite sporogony [2]	killing of ookinetes (P. berghei ookinetes)	P. falciparum oocyst prevalence and intensity (P. falciparum)	infection prevalence and intensity (P. berghei)
magainin	significant transmission-blocking activity	completely block parasite sporogony	–	–	–
melittin	significant transmission-blocking activity	–	kill	reduce P. falciparum oocyst prevalence and intensity	significant decrease in infection prevalence and intensity
